Experimental data: patent US20110280813A1, “NEURAMINIDASE INHIBITORS AND USES THEREOF” (priority 2008, published 2011)
“Also recorded” adds a separate entry of the source. Like-named read-outs stand apart in the source and are kept apart here.

Assays:
[1] = biological target: T1, P. aeruginosa neuraminidase (NanPs) (Pseudomonas aeruginosa, UniProt G3XCV3); conditions: read-out: concentration for 50% inhibition of the P. aeruginosa neuraminidase; from reference A37; cited from earlier work
[2] = biological target: T2, S. pneumoniae neuraminidase (NanA) (Streptococcus pneumoniae, UniProt P62575); assay: Neuraminidase assay with fluorogenic substrate MNN, NanA; format: biochemical
T2 construct: residues 116-1035 of S. pneumoniae D39 sialidase A precursor (NanA); made in house; host or cells: E. coli BL21(DE3), pET28a
T2 sequence (P62575 116-1035): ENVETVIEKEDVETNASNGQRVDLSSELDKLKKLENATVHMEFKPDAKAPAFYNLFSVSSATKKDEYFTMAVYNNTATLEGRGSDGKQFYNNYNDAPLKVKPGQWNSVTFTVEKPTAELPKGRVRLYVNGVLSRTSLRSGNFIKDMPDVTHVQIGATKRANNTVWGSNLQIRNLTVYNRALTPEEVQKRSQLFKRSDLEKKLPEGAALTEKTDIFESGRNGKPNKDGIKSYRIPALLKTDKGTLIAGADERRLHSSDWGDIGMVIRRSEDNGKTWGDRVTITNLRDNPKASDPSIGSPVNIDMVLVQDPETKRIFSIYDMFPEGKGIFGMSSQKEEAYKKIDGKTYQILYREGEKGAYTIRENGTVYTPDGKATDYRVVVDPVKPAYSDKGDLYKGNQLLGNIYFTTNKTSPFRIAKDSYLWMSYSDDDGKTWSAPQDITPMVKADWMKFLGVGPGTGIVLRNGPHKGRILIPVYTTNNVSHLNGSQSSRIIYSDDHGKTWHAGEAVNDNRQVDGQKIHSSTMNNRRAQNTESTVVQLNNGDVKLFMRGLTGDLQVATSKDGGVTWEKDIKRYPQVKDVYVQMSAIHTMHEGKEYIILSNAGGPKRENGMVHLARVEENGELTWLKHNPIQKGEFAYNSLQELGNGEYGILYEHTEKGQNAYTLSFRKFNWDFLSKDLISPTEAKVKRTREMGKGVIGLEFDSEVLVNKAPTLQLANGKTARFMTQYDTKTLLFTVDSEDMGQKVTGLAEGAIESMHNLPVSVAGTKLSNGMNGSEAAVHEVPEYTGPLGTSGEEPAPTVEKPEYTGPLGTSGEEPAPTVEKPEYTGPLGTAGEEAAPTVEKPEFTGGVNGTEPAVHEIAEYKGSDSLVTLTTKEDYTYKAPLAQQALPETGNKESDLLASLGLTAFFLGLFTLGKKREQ
Protocol: (§1) Neuraminidase assay. Neuraminidase activity of NanA was detected using the fluorogenic substrate 2′-(4-methylumbelliferyl)-α-D-N-acetylneuraminic acid (MNN, Sigma). Reactions contained 1.5 mM MNN, 1 nM of NanA in 2.5 mM sodium phosphate buffer (pH 5). Reactions were allowed to incubate for 2 h at 37° C. before fluorescence intensity was measured at excitation and emission wavelengths of 360 nm and 465 nm in a Tecan microplate reader (Männedorf, Switzerland). NanPs was assayed as above with 1 mM of enzyme in 7.5 mM sodium chloride and 4 mM calcium chloride. Compounds were screened at a concentration of 100 μM before dose-dependence was established. Compounds were obtained from a variety of sources (Otava, Kyiv, Ukraine; Interbioscreen, Moscow, Russia; Chembridge San Diego, USA; Maybridge, Cornwell, UK; Sigma, St Louis, USA; Princeton, Princeton, USA; Lifechem, Burlington, Canada; Enamine, Kiev, Ukraine). Neuraminidase assays with oseltamivir were performed using the hydrolyzed version of the compound. Divalent cations were supplied in the form of calcium, magnesium, ferric and copper chloride. All neuraminidase assays were performed at least in triplicate.
as §1, with “assay. NanA was purified as previously described (B19).” for “assay.”, “Switzerland).” for “Switzerland). NanPs was assayed as above with 1 mM of enzyme in 7.5 mM sodium chloride and 4 mM calcium chloride. Compounds were screened at a concentration of 100 μM before dose-dependence was established.”, “Kiev,” for “Kyiv,”, “compound. Briefly, a mixture of oseltamivir (300 mg) in methanol (10 ml) was added to 5N NaOH (3 ml). The mixture was stirred overnight and evaporated under reduced pressure. The residue was dissolved in 10 ml H2O and the washed with 5 ml of ethyl acetate. The aqueous solution was acidified with 5N HCl to pH=2-3. Evaporation of water under reduced pressure gave the hydrolyzed product. […]” for “compound.”

[3] = tested on: S. pneumoniae wild-type D39 biofilm; assay: Biofilm formation after epithelial cell interaction (crystal violet microtitre assay); format: cell-based, Streptococcus pneumoniae
Protocol: (§2) Biofilm assay. Bacterial strains were grown to mid-log phase before being diluted 1:100 in TS broth and catalase. 100 μl of diluted culture was added in triplicate to 96-well flat bottom tissue culture treated plates (Falcon) and left for 18-24 h at 37° C. with 5% CO2. Plates were read at 600 nm to determine levels of growth before being washed in water. Adherent biofilm-forming cells were then stained with 125 μL of 1% crystal violet for 15 min before two further washes in water and allowed to dry. Bound crystal violet was then suspended in 200 μL of ethanol, shaken for 15 min and read at 540 nm.
(§3) Biofilm formation after epithelial cell interaction. Bacterial strains were grown and inoculated onto 1HAEo^− cells as per adherence assay. After the initial PBS washes fresh MEM media was applied before a further 1 h incubation. This removal and addition of fresh media was repeated a further four times before detachment of adherent bacteria using TrypLE Express (Gibco). The detached bacteria were then diluted 1:100 in TS broth and catalase and assayed as per the biofilm assay. Samples were repeated four times, each time in sextuplicate using epithelial cells without bacteria as a negative control.
as §3, with “control. […] Fluorescence microscopy was performed using a Zeiss Observer Z1 inverted fluorescence microscope with ApoTome (Zeiss) for optical sectioning and AxioVision software (v 4.6.2.0, Zeiss). […]” for “control.”

[4] = biological target: T1, P. aeruginosa neuraminidase (NanPs); assay: Neuraminidase assay with fluorogenic substrate MNN, NanPs; format: biochemical
Protocol: as §1

[5] = tested on: S. pneumoniae planktonic cells; assay: Growth of planktonic cells (600 nm reading in biofilm assay); format: cell-based, Streptococcus pneumoniae
Protocol: as §2
as §3, with “control. […] Fluorescence microscopy was performed using a Zeiss Observer Z1 inverted fluorescence microscope with ApoTome (Zeiss) for optical sectioning and AxioVision software (v 4.6.2.0, Zeiss). […]” for “control.”

T1 sequence (G3XCV3 entry or part of it): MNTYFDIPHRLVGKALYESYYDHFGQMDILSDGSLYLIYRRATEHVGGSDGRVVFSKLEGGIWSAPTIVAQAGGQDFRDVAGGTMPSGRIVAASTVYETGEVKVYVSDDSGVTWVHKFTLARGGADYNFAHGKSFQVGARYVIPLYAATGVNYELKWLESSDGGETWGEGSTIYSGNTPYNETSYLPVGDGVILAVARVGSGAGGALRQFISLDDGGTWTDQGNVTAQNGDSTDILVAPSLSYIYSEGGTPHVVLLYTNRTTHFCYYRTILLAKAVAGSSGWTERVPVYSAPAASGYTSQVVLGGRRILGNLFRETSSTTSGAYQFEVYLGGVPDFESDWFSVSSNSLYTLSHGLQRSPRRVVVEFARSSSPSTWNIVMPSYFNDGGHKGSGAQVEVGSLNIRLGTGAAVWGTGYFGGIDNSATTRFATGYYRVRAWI

CC(=O)N[C@H]1[C@H]([C@H](O)[C@H](O)CO)OC(C(=O)O)=C[C@@H]1O [DANA, 2,3-dehydro-2-deoxy-N-acetylneuraminic acid]
IC50 [1]: ~10000 µM

CC(=O)N[C@@H]1[C@@H](O)C[C@](Oc2ccc3c(C)cc(=O)oc3c2)(C(=O)O)O[C@H]1C(O)[C@H](O)CO (stereo partly drawn) [MNN, 2′-(4-methylumbelliferyl)-α-D-N-acetylneuraminic acid, reference compound]
Km [2]: ~1400 µM

CC(=O)N[C@H]1[C@H]([C@H](O)[C@H](O)CO)OC(O)(C(=O)O)C[C@@H]1O (stereo partly drawn) [NANA, N-acetylneuraminic acid, reference compound]
IC50 [1]: ~10000 µM | IC50 [2]: 600 µM | biofilm formation of the wild-type (D39) strain ([3]; 0.2% w/v NANA): decreased biofilm formation; also recorded: reduced biofilm formation

CCOC(=O)C1=C[C@@H](OC(CC)CC)[C@H](NC(C)=O)[C@@H](N)C1 [Oseltamivir, oseltamivir, reference compound]
IC50 ([2]; IC50 against NanA, hydrolyzed version of oseltamivir): 2000 µM | IC50 [4]: ~600 µM

COc1ccc([C@H]2[C@H](C(=O)c3ccc(Cl)cc3)C(=O)C(=O)N2c2cccc(C(=O)O)c2)cc1 [XX1]
growth of planktonic cells [5]: did not affect growth | inhibition of NanA, times more effective than DANA ([2]; Example 1): greater than 20 times | inhibition of NanA, times more effective than NANA ([2]; Example 1): > 80 times | inhibition of NanA, times more effective than oseltamivir ([2]; Example 1): > 200 times | inhibition of NanA, times more effective than DANA ([2]; Example 3): greater than 7 times | inhibition of NanA, times more effective than NANA ([2]; Example 3): > 20 times | inhibition of NanA, times more effective than oseltamivir ([2]; Example 3): > 70 times | IC50 ([2]; IC50 against NanA, Example 3, dose response fitted with logarithmic-based trend line): 28 µM | IC50 ([2]; IC50 for the S. pneumoniae neuraminidase, Example 1, dose response fitted with power-based trend line): 8.5 µM | biofilm formation ([3]; 100 μM, inhibitor present during epithelial cell exposure and in microtitre trays): significant reduction in biofilm formation | levels of biofilm formation ([3]; 400 μM, inhibitor present during epithelial cell exposure and in microtitre trays): comparative to the nanA strain | IC50 [4]: 29 µM

[Ca] [calcium]
increase in NanA activity ([2]; 1 mM calcium): 70%

[Mg] [magnesium]
increase in NanA activity ([2]; presence of magnesium ions): 50%
